From PMC10489817, “2-Alkyl-Substituted-4-Amino-Thieno[2,3-d]Pyrimidines: Anti-Proliferative Properties to In Vitro Breast Cancer Models” (Molecules, 2023)
Where two headings read alike, the source gives them in different places.

Experiments:
MCF-7 = assay: MTT anti-proliferative test, MCF-7; format: cell-based, human; conditions: for IC50: Homo sapiens, MCF7, MTT
From the text: (§1) The MCF-10A cell line (normal human mammary epithelial cells) served as a reference control.
(§2) All breast cell lines (MCF-10A, MCF-7, and MDA-MB-231) were purchased from the American Type Culture Collection—ATCC (Manassas, VA, USA). The MCF-7 and MDA-MB-231 were cultivated in Dulbecco’s modified Eagle’s medium (DMEM) and supplemented with 10% fetal bovine serum (FBS), 1% sodium pyruvate, and 1% MEM non-essential amino acids (NEAA) without antibiotics. The non-tumorigenic breast cell line (MCF-10A) was cultivated in DMEM medium (Sigma-Aldrich, St. Louis, MO, USA) and supplemented with 10% FBS, 1% sodium pyruvate, 1% non-essential amino acids (NEAA), 20 ng/mL human epithelia growth factor (hEGF), 10 μg/mL insulin, and 0.5 μg/mL hydrocortisone without antibiotics. All cell lines were maintained in a humidified atmosphere, with 5% CO2 at 37 °C.
(§3) Using the standard MTT-dye reduction assay described by Mosmann, the anti-proliferative activity was tested. The method is based on the metabolism of the tetrazolium salt MTT to insoluble formazan. The formazan absorption was registered using a microplate reader at λ = 540 nm. The measured absorption is an indicator of cell viability and metabolic activity. Anti-proliferative activities were expressed as IC50 values (concentrations required for 50% inhibition of cell growth), calculated using non-linear regression analysis (GraphPad Software, San Diego, CA, USA).

[1] = tested on: A549, HCT116 and MCF-7 cell lines; parameters: method as in doi:10.1016/j.cclet.2014.05.043; conditions: cell line not stated; cited from earlier work
[2] = in vitro 3T3 NRU test, cytotoxicity; format: cell-based, mouse; conditions: mouse, BALB/3T3 clone A31 cells (mouse embryo fibroblasts)
Experimental: (§4) Compounds 2–5 were studied for cytotoxicity/phototoxicity by an in vitro 3T3 NRU-test. The cell line BALB 3T3, clone A31 (mouse embryo fibroblasts), was incubated with the test compounds at a concentration from 15 to 4000 µg/mL for 24 h at 37 °C, 5% CO2, and 95% humidity. The cytotoxicity and phototoxicity were expressed in percentages relative to the negative control determined. […] Based on the dose–response curves, the CC50/PC50 values (50% cytotoxic/phototoxic concentration) were calculated by nonlinear regression analysis (Table 1). The CC50 values can be used to calculate the PIF (photo-irritancy factor) for each test compound according to the following formula: PIF = CC50/PC50.
(§5) BALB/3T3 cells were cultured in 75 cm^2 tissue culture flasks in DMEM, 10% FBS, 2 mM glutamine, and antibiotics (penicillin 100 U/mL and streptomycin-100 µg/mL) at 37 °C, 5% CO2, and 90% relative humidity. Cytotoxicity/phototoxicity was assessed by a validated BALB/3T3 clone A31 neutral red uptake assay (3T3 NRU test). Briefly, cells were plated in a 96-well microtiter plate at a density of 1 × 10^4 cells/100 µL/well and incubated for 24 h. A wide concentration range was applied for the test compounds. For the phototoxicity tests, 96-well plates were irradiated with a dose of 2.4 J/cm^2, and the cells were incubated for an additional 24 h. After treatment with neutral red medium, washing, and treatment with the ethanol/acetic acid solution, the absorption was measured on a TECAN microplate reader (TECAN, Grödig, Austria) at a wavelength of 540 nm. The light source which we used was a light-emitting diode (LED) matrix—an artificial solar light simulator Helios-iO, model LE-9ND55-H—5500K (SERIC Ltd., Tokyo, Japan).
Cytotoxicity/phototoxicity were expressed as CC50/PC50 values (concentrations required for 50% cytotoxicity/phototoxicity), calculated using non-linear regression analysis (GraphPad Software GraphPad Prism 9.5.1, San Diego, CA, USA). The CC50 values were used to calculate the PIF (photo-irritancy factor) for each test substance, according to the following formula: […]

BALB 3T3 cells = assay: in vitro 3T3 NRU test, phototoxicity; format: cell-based, mouse; conditions: for IC50: Mus musculus, light or radiation study
Experimental: as §4, §5
Cytotoxicity/phototoxicity were expressed as CC50/PC50 values (concentrations required for 50% cytotoxicity/phototoxicity), calculated using non-linear regression analysis (GraphPad Software GraphPad Prism 9.5.1, San Diego, CA, USA). The CC50 values were used to calculate the PIF (photo-irritancy factor) for each test substance, according to the following formula:
PIF = Cytotoxicity (CC50)/Phototoxicity (PC50)

MCF-10A = assay: MTT anti-proliferative test, MCF-10A; format: cell-based; conditions: Homo sapiens
From the text: as §1, §2, §3

MDA-MB-231 = assay: MTT anti-proliferative test, MDA-MB-231; format: cell-based, human
From the text: as §1, §2, §3

MDA-MB-435 = tested on: MDA-MB-435; parameters: method as in PMID 23538397; conditions: cited from earlier work

N.N.[Cl][Pt][Cl] [Cisplatin, reference compound]
selective index in the positive control (MCF-7; tumor cell line not stated, paragraph on MCF-7): 25

Cc1cc2c(OCc3cc(-c4ccc(Cl)cc4)no3)ncnc2s1 [6-methyl-4-{[3-(4-chlorophenyl)-isoxazol-5-yl-]-methoxy}-thieno[2,3-d]pyrimidine]
IC50 [1]: 0.00421 µM

CCOC(=O)c1sc2nc(CCCl)nc(N)c2c1C [Compound 3, Ethyl 4-Amino-2-(2-Chloroethyl)-5-Methylthieno[2,3-d] Pyrimidine-6-Carboxylate]
IC50 at 24 h ([2]; BALB 3T3, 24 h, NRU, no irradiation (CC50), read-out: IC50 of Mean ± SD, Cytotoxicity): 674 ± 31.8 µg/mL
IC50 at 24 h ([2]; BALB 3T3, value in brackets, read-out: IC50, Cytotoxicity (converted)): 2200 µM
IC50 (BALB 3T3 cells; BALB 3T3, irradiated 2.4 J/cm^2 (PC50), read-out: IC50 of Mean ± SD, Phototoxicity): 545 ± 40.1 µg/mL
IC50 (BALB 3T3 cells; BALB 3T3, irradiated, value in brackets, read-out: IC50, Phototoxicity (converted)): 1900 µM
PIF (photo-irritancy factor) (BALB 3T3 cells; PIF = CC50/PC50, <2 not phototoxic): 1.2
IC50 (MCF-10A; read-out: IC50 MCF-10A (converted)): 100 µM
IC50 (MCF-10A; read-out: IC50 of Mean ± SD, Anti-Proliferative Activity MCF-10A): 45.3 ± 3.5 µg/mL
IC50 (MCF-7; read-out: IC50 MCF-7 (converted)): 45 µM
IC50 (MCF-7; read-out: IC50 MCF-7 (text)): 13.4 µg/mL
IC50 (MCF-7; read-out: IC50 of Mean ± SD, Anti-Proliferative Activity MCF-7): 13.4 ± 0.8 µg/mL
SI (selective index) MCF-7 (MCF-7; IC50 MCF-10A/IC50 MCF-7): 3.4
IC50 (MDA-MB-231; Homo sapiens, MDA-MB-231, MTT, read-out: IC50 MDA-MB-231 (converted)): 400 µM
IC50 (MDA-MB-231; Homo sapiens, MDA-MB-231, MTT, read-out: IC50 of Mean ± SD, Anti-Proliferative Activity MDA-MB-231): 131 ± 3 µg/mL
SI (selective index) MDA-MB-231 (MDA-MB-231; IC50 MCF-10A/IC50 MDA-MB-231): 0.3
IC50 (MDA-MB-231; MTT, read-out: IC50 MDA-MB-231 (converted)): 440 µM
melting point: 163 to 165 °C

Cc1sc2nc(NCc3ccccc3)[nH]c(=O)c2c1C [2-(benzylamino)-5,6-dimethylthieno[2,3-d]pyrimidin-4(3H)-one]
growth percent (GP) (MDA-MB-435): −31.02%
